Assay results: patent publication US20120004215A1 (priority 2009, published 2012)

Molecular target: α7-subtype of nicotinic receptors (Mus musculus, UniProt P49582)
Assay type: in vivo, mice
Details: ex vivo, mouse hippocampal membranes; dose inhibiting specific binding of 3H-α-bungarotoxin (1 nM) by 50%

Chain of α7-subtype of nicotinic receptors (P49582 23-502): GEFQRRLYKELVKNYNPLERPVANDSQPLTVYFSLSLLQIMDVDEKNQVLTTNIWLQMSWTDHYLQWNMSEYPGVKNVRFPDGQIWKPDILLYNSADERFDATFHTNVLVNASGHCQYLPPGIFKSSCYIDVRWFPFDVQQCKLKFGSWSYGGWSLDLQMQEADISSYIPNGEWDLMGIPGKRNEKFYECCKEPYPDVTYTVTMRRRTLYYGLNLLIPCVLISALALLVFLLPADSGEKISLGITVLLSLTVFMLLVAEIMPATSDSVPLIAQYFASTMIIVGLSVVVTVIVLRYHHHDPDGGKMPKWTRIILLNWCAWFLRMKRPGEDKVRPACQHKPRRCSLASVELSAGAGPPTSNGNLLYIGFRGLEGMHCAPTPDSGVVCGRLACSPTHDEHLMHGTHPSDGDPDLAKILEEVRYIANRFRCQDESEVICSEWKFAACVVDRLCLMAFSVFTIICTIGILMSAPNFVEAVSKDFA

Structure (SMILES): O=c1c2ccccc2nnn1-c1cnc(N2CC[N+]3([O-])CCC2CC3)nc1 [Compound 1, 3-[2-(1-Oxy-1,4-diaza-bicyclo[3.2.2]non-4-yl)-pyrimidin-5-yl]-3H-benzo[d][1,2,3]-triazin-4-one]
- EC50 (mg/kg), Inhibition of 3H-α-Bungarotoxine Binding: 9.4 mg/kg
